Read-outs that look alike come from different tables or passages of the source.
How the values were obtained:
[1] = Pharmacokinetics after administration of rac-ornidazole in a formulation; type: in vivo, human; settings: for AUC of the component compared with rac-ornidazole / T1/2 of the component compared with rac-ornidazole: after a single administration of rac-ornidazole
prothrombin time = assay: Effect on prothrombin time; settings: relative to the Ornidazole racemic mixture

## Cc1ncc([N+](=O)[O-])n1CC(O)CCl (racemic) [(rac)-ornidazole, 1-chloro-3-(2-methyl-5-nitro-1H-imidazol-1-yl)propan-2-ol, reference compound]
[1]; human, in vivo, after a single administration of rac-ornidazole in a formulation, read-out: elimination half-life (T1/2)
  half-life: 14 to 18 h
[1]; human, in vivo, after administration of rac-Ornidazole in a formulation
  Tmax: 2 to 4 h
[1]; human, in vivo, after oral administration, read-out: terminal elimination half-life
  half-life: 14 to 18 h
[1]; human, in vivo, after single administration of rac-ornidazole in a formulation
  Cmax: 9000 to 31500 ng/mL

## Cc1ncc([N+](=O)[O-])n1C[C@@H](O)CCl [(R)-ornidazole]
[1]
  AUC of the component compared with rac-ornidazole: similar
  T1/2 of the component compared with rac-ornidazole: similar
Prothrombin time
  effect on prothrombin time: diminished effect on prothrombin time

## Cc1ncc([N+](=O)[O-])n1C[C@H](O)CCl [(S)-ornidazole]
[1]
  AUC of the component compared with rac-ornidazole: similar
  T1/2 of the component compared with rac-ornidazole: similar
Prothrombin time
  effect on prothrombin time: diminished effect on prothrombin time

Source: patent publication US11135200B2, “Antimicrobial drug synthesis and therapeutic compositions” (priority 2014, dated 2021)
